Here are results for two compounds from PMC11354514, “Synthesis and Anti-Cancer Activity of the Novel Selective Glucocorticoid Receptor Agonists of the Phenylethanolamine Series” (International Journal of Molecular Sciences, 2024).

Structures are written as SMILES. Where two headings read alike, the source gives them in different places.

This assay has as its target T1, glucocorticoid receptor (GR) (Homo sapiens, UniProt P04150).
T1 construct: gene NR3C1
T1 sequence (P04150 1-777): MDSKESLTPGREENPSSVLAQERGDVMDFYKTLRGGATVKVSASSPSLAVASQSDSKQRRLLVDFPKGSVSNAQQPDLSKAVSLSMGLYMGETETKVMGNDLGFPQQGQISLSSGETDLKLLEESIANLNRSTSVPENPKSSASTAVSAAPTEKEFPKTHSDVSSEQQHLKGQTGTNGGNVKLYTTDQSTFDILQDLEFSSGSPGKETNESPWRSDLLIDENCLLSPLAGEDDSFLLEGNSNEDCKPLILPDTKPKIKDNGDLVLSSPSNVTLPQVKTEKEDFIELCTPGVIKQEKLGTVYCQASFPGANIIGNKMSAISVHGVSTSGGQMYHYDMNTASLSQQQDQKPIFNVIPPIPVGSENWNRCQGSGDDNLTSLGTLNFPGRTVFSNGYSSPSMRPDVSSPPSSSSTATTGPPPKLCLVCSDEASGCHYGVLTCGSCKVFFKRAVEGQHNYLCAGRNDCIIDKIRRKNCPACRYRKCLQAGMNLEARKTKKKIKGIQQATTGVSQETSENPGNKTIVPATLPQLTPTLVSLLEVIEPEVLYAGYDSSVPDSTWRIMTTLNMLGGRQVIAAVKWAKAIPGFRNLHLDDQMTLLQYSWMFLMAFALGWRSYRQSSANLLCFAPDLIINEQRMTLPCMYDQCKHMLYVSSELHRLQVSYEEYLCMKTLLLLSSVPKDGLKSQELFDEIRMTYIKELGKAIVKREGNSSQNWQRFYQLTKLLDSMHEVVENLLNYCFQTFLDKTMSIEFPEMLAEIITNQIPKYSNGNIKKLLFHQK
Nature of the assay: [3H]Dex competition radioligand binding in whole K562 cells (endogenous GR). The class given is cell-based.

Take `CNCC(Cl)c1ccc(OC(C)=O)cc1` (centres unmarked) [CpdA, 2-(4-acetoxyphenyl)-2-chloro-N-methylethylammonium-chloride]: the IC50 came to 2.5 µM.
For the compound `Oc1ccc(C(O)CN2CCCCC2)cc1` (centres unmarked) [CpdA-03, 4-(1-hydroxy-2-(piperidin-1-yl)ethyl)phenol], the IC50 (read-out: IC50) was found to be 0.15 µM.

By IC50 is commonly meant the point on the concentration scale where inhibition reaches its midpoint.
